The structures appear in SMILES notation.

The results in this text go back to US20210387983A1, “CRYSTALLINE ALK5 INHIBITORS AND USES THEREOF” (THERAVANCE BIOPHARMA R&D IP, LLC, priority 2020, published 2021).

The data set can be described thus: Dynamic moisture sorption (DMS) analysis. Format: physicochemical. The settings on record: for XRPD pattern of solid after two consecutive sorption-desorption cycles: 5-90% RH, 25° C.; for total moisture gain: exposed to 5-90% relative humidity, about 25° C.; for hygroscopicity: from DMS data. Here is the method: Dynamic moisture sorption (DMS) analysis was performed on weighed samples of the crystalline forms of the compound of Formula I using a VTI atmospheric microbalance, SGA-100 system (VTI Corp., Hialeah, Fla. 33016). Following an initial drying step (approximately 0% RH) of 2 hours, two cycles of sorption and desorption were completed isothermally at 25° C. at a scan rate of 5% RH/step over a humidity range of 5 to 90% RH. Representative DMS traces of polymorph Form I and polymorph Form II of a fumarate salt of the compound of Formula I and polymorph Form III of the compound of Formula I (freebase) are shown in FIG. 4, FIG. 8 and FIG. 12, respectively.

As to `C[C@@H]1CN(CCNc2cnc3ccc(-c4nc[nH]c4-c4cc(Cl)ccc4F)nc3c2)C[C@H](C)N1.O=C(O)/C=C/C(=O)O` [polymorph Form I, 6-(5-(5-chloro-2-fluorophenyl)-1H-imidazol-4-yl)-N-(2-((3S,5R)-3,5-dimethylpiperazin-1-yl)ethyl)-1,5-naphthyridin-3-amine, fumaric Acid], the “XRPD pattern of solid after two consecutive sorption-desorption cycles” value (from here on “XRPD pattern of solid”) is “no change in form”, the total moisture gain entry is given as “about 1.30 % by weight” and the hygroscopicity result was “slightly-hygroscopic”.
Turning to `C[C@@H]1CN(CCNc2cnc3ccc(-c4nc[nH]c4-c4cc(Cl)ccc4F)nc3c2)C[C@H](C)N1` [polymorph Form III, 6-(5-(5-chloro-2-fluorophenyl)-1H-imidazol-4-yl)-N-(2-((3S,5R)-3,5-dimethylpiperazin-1-yl)ethyl)-1,5-naphthyridin-3-amine], the “XRPD pattern of solid” value is given as “no change in form”, the total moisture gain result is listed as “about 0.6 % by weight” and the hygroscopicity result is “slightly-hygroscopic”.
In the case of `C[C@@H]1CN(CCNc2cnc3ccc(-c4nc[nH]c4-c4cc(Cl)ccc4F)nc3c2)C[C@H](C)N1.O=C(O)/C=C/C(=O)O` [polymorph Form II, 6-(5-(5-chloro-2-fluorophenyl)-1H-imidazol-4-yl)-N-(2-((3S,5R)-3,5-dimethylpiperazin-1-yl)ethyl)-1,5-naphthyridin-3-amine, fumaric Acid], the “XRPD pattern of solid” value was “no change in form”, the total moisture gain result is “about 0.85 % by weight” and the hygroscopicity entry is “slightly-hygroscopic”.
